Key:
Assay in all cases: relative viability (nuclei count vs DMSO), 5 days (fraction); higher = more cells survive
Bleomycin + Decitabine = compound: CC1=C(N=C(N=C1N)[C@H](CC(=O)N)NC[C@@H](C(=O)N)N)C(=O)N[C@@H]([C@H](C2=CN=CN2)OC3C(C(C(C(O3)CO)O)O)OC4C(C(C(C(O4)CO)O)OC(=O)N)O)C(=O)N[C@H](C)[C@H]([C@H](C)C(=O)N[C@@H]([C@@H](C)O)C(=O)NCCC5=NC(=CS5)C6=NC(=CS6)C(=O)NCCC[S+](C)C)O [Bleomycin] + Nc1ncn([C@H]2C[C@H](O)[C@@H](CO)O2)c(=O)n1 [Decitabine] (partner 2 µM); details: main component drawn
Outline: (§1)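 Five library-drug doses in √10 steps were combined with a fixed anchor-drug dose, or a single drug was given alone, by pin tool to lung cancer cell lines in 1536-well plates the day after seeding. Nuclei were stained and counted after 5 days. Relative viability is the nuclei count in treated wells over that in vehicle wells, taken as the median of duplicate plates.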

Bleomycin + Phenformin = compound: CC1=C(N=C(N=C1N)[C@H](CC(=O)N)NC[C@@H](C(=O)N)N)C(=O)N[C@@H]([C@H](C2=CN=CN2)OC3C(C(C(C(O3)CO)O)O)OC4C(C(C(C(O4)CO)O)OC(=O)N)O)C(=O)N[C@H](C)[C@H]([C@H](C)C(=O)N[C@@H]([C@@H](C)O)C(=O)NCCC5=NC(=CS5)C6=NC(=CS6)C(=O)NCCC[S+](C)C)O [Bleomycin] + N=C(N)NC(=N)NCCc1ccccc1 [Phenformin] (partner 250 µM); details: main component drawn
Outline: as §1

Bleomycin + Trametinib = compound: CC1=C(N=C(N=C1N)[C@H](CC(=O)N)NC[C@@H](C(=O)N)N)C(=O)N[C@@H]([C@H](C2=CN=CN2)OC3C(C(C(C(O3)CO)O)O)OC4C(C(C(C(O4)CO)O)OC(=O)N)O)C(=O)N[C@H](C)[C@H]([C@H](C)C(=O)N[C@@H]([C@@H](C)O)C(=O)NCCC5=NC(=CS5)C6=NC(=CS6)C(=O)NCCC[S+](C)C)O [Bleomycin] + CC(=O)Nc1cccc(-n2c(=O)n(C3CC3)c(=O)c3c(Nc4ccc(I)cc4F)n(C)c(=O)c(C)c32)c1 [Trametinib] (partner 0.02 µM); details: main component drawn
Outline: as §1

Etoposide + Navitoclax = compound: COc1cc([C@@H]2c3cc4c(cc3[C@@H](O[C@@H]3O[C@@H]5CO[C@@H](C)O[C@H]5[C@H](O)[C@H]3O)[C@H]3COC(=O)[C@H]23)OCO4)cc(OC)c1O [Etoposide] + CC1(C)CCC(c2ccc(Cl)cc2)=C(CN2CCN(c3ccc(C(=O)NS(=O)(=O)c4ccc(N[C@H](CCN5CCOCC5)CSc5ccccc5)c(S(=O)(=O)C(F)(F)F)c4)cc3)CC2)C1 [Navitoclax] (partner 0.5 µM)
Outline: as §1

For NCI-H661, the relative viability (Bleomycin + Decitabine; first compound 0.01 µM) was 0.552, the relative viability (Bleomycin + Decitabine; first compound 0.03162 µM) was 0.572 and the relative viability (Bleomycin + Decitabine; first compound 0.1 µM) was 0.434. The relative viability (Bleomycin + Decitabine; first compound 0.3162 µM) was 0.37, the relative viability (Bleomycin + Decitabine; first compound 1 µM) was 0.315 and the relative viability (Bleomycin + Phenformin; first compound 0.01 µM) was 0.272. The relative viability (Bleomycin + Phenformin; first compound 0.03162 µM) was 0.239, the relative viability (Bleomycin + Phenformin; first compound 0.1 µM) was 0.232 and the relative viability (Bleomycin + Phenformin; first compound 0.3162 µM) was 0.216. For the same cell line, the relative viability (Bleomycin + Phenformin; first compound 1 µM) was 0.215, the relative viability (Bleomycin + Trametinib; first compound 0.01 µM) was 0.546 and the relative viability (Bleomycin + Trametinib; first compound 0.03162 µM) was 0.484. It also gave a relative viability (Bleomycin + Trametinib; first compound 0.1 µM) of 0.477, a relative viability (Bleomycin + Trametinib; first compound 0.3162 µM) of 0.392 and a relative viability (Bleomycin + Trametinib; first compound 1 µM) of 0.292.
Cell Line NCI-H650 has a relative viability (Bleomycin + Decitabine; first compound 0.01 µM) of 0.305, a relative viability (Bleomycin + Decitabine; first compound 0.03162 µM) of 0.318 and a relative viability (Bleomycin + Decitabine; first compound 0.1 µM) of 0.299. For the same cell line, the relative viability (Bleomycin + Decitabine; first compound 0.3162 µM) was 0.2, the relative viability (Bleomycin + Decitabine; first compound 1 µM) was 0.175 and the relative viability (Bleomycin + Phenformin; first compound 0.01 µM) was 0.342. For the same cell line, the relative viability (Bleomycin + Phenformin; first compound 0.03162 µM) was 0.399, the relative viability (Bleomycin + Phenformin; first compound 0.1 µM) was 0.384 and the relative viability (Bleomycin + Phenformin; first compound 0.3162 µM) was 0.327. It also gave a relative viability (Bleomycin + Phenformin; first compound 1 µM) of 0.202, a relative viability (Bleomycin + Trametinib; first compound 0.01 µM) of 0.909 and a relative viability (Bleomycin + Trametinib; first compound 0.03162 µM) of 0.993. For the same cell line, the relative viability (Bleomycin + Trametinib; first compound 0.1 µM) was 0.8, the relative viability (Bleomycin + Trametinib; first compound 0.3162 µM) was 0.352 and the relative viability (Bleomycin + Trametinib; first compound 1 µM) was 0.18.
With A549 the relative viability (Bleomycin + Decitabine; first compound 0.01 µM) was 0.234, the relative viability (Bleomycin + Decitabine; first compound 0.03162 µM) was 0.137 and the relative viability (Bleomycin + Decitabine; first compound 0.1 µM) was 0.218. The relative viability (Bleomycin + Decitabine; first compound 0.3162 µM) was 0.0867, the relative viability (Bleomycin + Decitabine; first compound 1 µM) was 0.0646 and the relative viability (Bleomycin + Phenformin; first compound 0.01 µM) was 0.143. For the same cell line, the relative viability (Bleomycin + Phenformin; first compound 0.03162 µM) was 0.139, the relative viability (Bleomycin + Phenformin; first compound 0.1 µM) was 0.444 and the relative viability (Bleomycin + Phenformin; first compound 0.3162 µM) was 0.0518. For the same cell line, the relative viability (Bleomycin + Phenformin; first compound 1 µM) was 0.0392, the relative viability (Etoposide + Navitoclax; first compound 0.01 µM) was 1.25 and the relative viability (Etoposide + Navitoclax; first compound 0.03162 µM) was 1.04. The relative viability (Etoposide + Navitoclax; first compound 0.1 µM) was 0.46, the relative viability (Etoposide + Navitoclax; first compound 0.3162 µM) was 0.157 and the relative viability (Etoposide + Navitoclax; first compound 1 µM) was 0.0716.
Cell Line NCI-H358 has a relative viability (Bleomycin + Decitabine; first compound 0.01 µM) of 0.198, a relative viability (Bleomycin + Decitabine; first compound 0.03162 µM) of 0.271 and a relative viability (Bleomycin + Decitabine; first compound 0.1 µM) of 0.189. The relative viability (Bleomycin + Decitabine; first compound 0.3162 µM) was 0.172, the relative viability (Bleomycin + Decitabine; first compound 1 µM) was 0.152 and the relative viability (Bleomycin + Phenformin; first compound 0.01 µM) was 0.343. The relative viability (Bleomycin + Phenformin; first compound 0.03162 µM) was 0.352, the relative viability (Bleomycin + Phenformin; first compound 0.1 µM) was 0.325 and the relative viability (Bleomycin + Phenformin; first compound 0.3162 µM) was 0.171. For the same cell line, the relative viability (Bleomycin + Phenformin; first compound 1 µM) was 0.147, the relative viability (Bleomycin + Trametinib; first compound 0.01 µM) was 0.138 and the relative viability (Bleomycin + Trametinib; first compound 0.03162 µM) was 0.138. It also gave a relative viability (Bleomycin + Trametinib; first compound 0.1 µM) of 0.127, a relative viability (Bleomycin + Trametinib; first compound 0.3162 µM) of 0.138 and a relative viability (Bleomycin + Trametinib; first compound 1 µM) of 0.108.
NCI-H1563 was tested, and the relative viability (Bleomycin + Phenformin; first compound 0.01 µM) was 0.581, the relative viability (Bleomycin + Phenformin; first compound 0.03162 µM) was 0.658 and the relative viability (Bleomycin + Phenformin; first compound 0.1 µM) was 0.64. For the same cell line, the relative viability (Bleomycin + Phenformin; first compound 0.3162 µM) was 0.551 and the relative viability (Bleomycin + Phenformin; first compound 1 µM) was 0.511.
Cell Line NCI-H2228 has a relative viability (Bleomycin + Phenformin; first compound 0.01 µM) of 0.314, a relative viability (Bleomycin + Phenformin; first compound 0.03162 µM) of 0.312 and a relative viability (Bleomycin + Phenformin; first compound 0.1 µM) of 0.301. For the same cell line, the relative viability (Bleomycin + Phenformin; first compound 0.3162 µM) was 0.185, the relative viability (Bleomycin + Phenformin; first compound 1 µM) was 0.147 and the relative viability (Bleomycin + Trametinib; first compound 0.01 µM) was 0.537. The relative viability (Bleomycin + Trametinib; first compound 0.03162 µM) was 0.468, the relative viability (Bleomycin + Trametinib; first compound 0.1 µM) was 0.431 and the relative viability (Bleomycin + Trametinib; first compound 0.3162 µM) was 0.269. The relative viability (Bleomycin + Trametinib; first compound 1 µM) was 0.26, the relative viability (Etoposide + Navitoclax; first compound 0.01 µM) was 0.842 and the relative viability (Etoposide + Navitoclax; first compound 0.03162 µM) was 0.934. The relative viability (Etoposide + Navitoclax; first compound 0.1 µM) was 0.849, the relative viability (Etoposide + Navitoclax; first compound 0.3162 µM) was 0.473 and the relative viability (Etoposide + Navitoclax; first compound 1 µM) was 0.138.
For SW 900, the relative viability (Bleomycin + Decitabine; first compound 0.01 µM) was 0.377, the relative viability (Bleomycin + Decitabine; first compound 0.03162 µM) was 0.406 and the relative viability (Bleomycin + Decitabine; first compound 0.1 µM) was 0.334. It also gave a relative viability (Bleomycin + Decitabine; first compound 0.3162 µM) of 0.234, a relative viability (Bleomycin + Decitabine; first compound 1 µM) of 0.244 and a relative viability (Bleomycin + Phenformin; first compound 0.01 µM) of 0.592. The relative viability (Bleomycin + Phenformin; first compound 0.03162 µM) was 0.447, the relative viability (Bleomycin + Phenformin; first compound 0.1 µM) was 0.335 and the relative viability (Bleomycin + Phenformin; first compound 0.3162 µM) was 0.11. The relative viability (Bleomycin + Phenformin; first compound 1 µM) was 0.16, the relative viability (Bleomycin + Trametinib; first compound 0.01 µM) was 0.858 and the relative viability (Bleomycin + Trametinib; first compound 0.03162 µM) was 0.561. It also gave a relative viability (Bleomycin + Trametinib; first compound 0.1 µM) of 0.453, a relative viability (Bleomycin + Trametinib; first compound 0.3162 µM) of 0.259 and a relative viability (Bleomycin + Trametinib; first compound 1 µM) of 0.197.
In the case of IA-LM, the relative viability (Etoposide + Navitoclax; first compound 0.01 µM) is reported as 0.595, the relative viability (Etoposide + Navitoclax; first compound 0.03162 µM) is reported as 0.742 and the relative viability (Etoposide + Navitoclax; first compound 0.1 µM) is reported as 0.731. The relative viability (Etoposide + Navitoclax; first compound 0.3162 µM) was 0.616 and the relative viability (Etoposide + Navitoclax; first compound 1 µM) was 0.431.
In the case of NCI-H1703, the relative viability (Etoposide + Navitoclax; first compound 0.01 µM) is reported as 1.04, the relative viability (Etoposide + Navitoclax; first compound 0.03162 µM) is reported as 1.12 and the relative viability (Etoposide + Navitoclax; first compound 0.1 µM) is reported as 0.575. For the same cell line, the relative viability (Etoposide + Navitoclax; first compound 0.3162 µM) was 0.527 and the relative viability (Etoposide + Navitoclax; first compound 1 µM) was 0.307.
In the case of LCLC-103H, the relative viability (Bleomycin + Decitabine; first compound 0.01 µM) is reported as 0.676, the relative viability (Bleomycin + Decitabine; first compound 0.03162 µM) is reported as 0.68 and the relative viability (Bleomycin + Decitabine; first compound 0.1 µM) is reported as 0.677. The relative viability (Bleomycin + Decitabine; first compound 0.3162 µM) was 0.721, the relative viability (Bleomycin + Decitabine; first compound 1 µM) was 0.537 and the relative viability (Bleomycin + Phenformin; first compound 0.01 µM) was 0.329. It also gave a relative viability (Bleomycin + Phenformin; first compound 0.03162 µM) of 0.333, a relative viability (Bleomycin + Phenformin; first compound 0.1 µM) of 0.294 and a relative viability (Bleomycin + Phenformin; first compound 0.3162 µM) of 0.274. It also gave a relative viability (Bleomycin + Phenformin; first compound 1 µM) of 0.223, a relative viability (Bleomycin + Trametinib; first compound 0.01 µM) of 0.628 and a relative viability (Bleomycin + Trametinib; first compound 0.03162 µM) of 0.678. The relative viability (Bleomycin + Trametinib; first compound 0.1 µM) was 0.62, the relative viability (Bleomycin + Trametinib; first compound 0.3162 µM) was 0.691 and the relative viability (Bleomycin + Trametinib; first compound 1 µM) was 0.507.
In the case of NCI-H1648, the relative viability (Bleomycin + Decitabine; first compound 0.01 µM) is reported as 0.412, the relative viability (Bleomycin + Decitabine; first compound 0.03162 µM) is reported as 0.387 and the relative viability (Bleomycin + Decitabine; first compound 0.1 µM) is reported as 0.466. The relative viability (Bleomycin + Decitabine; first compound 0.3162 µM) was 0.467, the relative viability (Bleomycin + Decitabine; first compound 1 µM) was 0.334 and the relative viability (Bleomycin + Trametinib; first compound 0.01 µM) was 0.388. For the same cell line, the relative viability (Bleomycin + Trametinib; first compound 0.03162 µM) was 0.4, the relative viability (Bleomycin + Trametinib; first compound 0.1 µM) was 0.416 and the relative viability (Bleomycin + Trametinib; first compound 0.3162 µM) was 0.269. The relative viability (Bleomycin + Trametinib; first compound 1 µM) was 0.295.
